Results: patent US20250170239A1, “CELLULAR REPROGRAMMING BY TARGETING THE GOLGI APPARATUS” (MUSC Foundation for Research Development, priority 2023, published 2025)

Key:
[1] = tested on: Pmel CD8+ T cells; test: Re-stimulation with gp100 and FACS cytokine analysis; type: cell-based, mouse; details: 0.5 mM GYY4137 3 days, re-stimulated with gp100
Excerpt: The impact of H2S on T cell effector function was next determined. Pmel CD8+ T cells were activated and expanded with standard culture conditions or with the addition of the H2S donor and subsequently re-stimulated with gp100 cognate antigen (FIG. 14E). […] Given the importance of protein translation in maintaining a robust anti-tumor response and the repression of T cell translation that occurs in the TME (Riesenberg B. P., et al., 2022, bioRxiv, 2022.01.31.478547; Marchingo J. M., et al., 2022, Cell Mol Immunol., 19(3):303-315), it was determined if H2S influences protein translation.

[2] = tested on: Tet; details: CD8+ T cells with or without 0.5 mM GYY4137
Description: On day 3, the cells were collected and TET activity was assessed using nuclear protein extract from CD8+ T cells treated with or without 0.5 mM GYY4137.

[3] = tested on: Pmel CD8+ T cells; details: 3 days gp100 and IL2 +/− 0.5 mM GYY4137
Description: Different metabolites' intracellular levels were determined by performing comprehensive hydrophilic metabolites analysis using LC/MS platform (Metabolomics Core Facility, Northwestern University). Data were then analyzed using MetaboAnalyst software. Samples were loaded equivalently across the platform and normalized to Bradford values before statistical analysis.

[4] = tested on: Sirt1; details: H2S-treated vs control T cells
Description: (FIG. 18C) NAD+ and nicotinamide quantification from metabolomics dataset. (FIG. 18D) SIRT1 deacetylase activity in activated Pmel T cells (means of normalized OD values). (FIGS. 18E and 18F) Pmel T cells were activated with gp100 for 3 days in the presence of vehicle, GYY4137 (0.5 mM), or GYY4137+sirt1 inhibitor EX527 (10 μM). (FIG. 18E) Nuclear and cytoplasmic protein fractions were isolated and western blot analysis was performed to determine relative expression of nuclear and cytoplasmic Foxo1 (n=3). (FIG. 18F) Expression of CD62L and CD44 analyzed by FACS (n=3). (FIG. 18G) Splenocytes from wildtype and Cbs-knockout mice+/−GYY4137 activated with anti-CD3 and anti-CD28 antibodies followed by intranuclear staining for Foxo1. (FIG. 18H) Pmel T cells activated and expanded for metabolic flux analysis. Quantification of oxygen consumption rate (OCR), spare respiratory capacity (SRC), maximal respiration, and basal respiration (n=10 experimental replicates representative of 3 separate experiments). (FIG. 18I) Pmel T cells activated and expanded to day 5 for characterization of mitochondria using FACS, quantified by MFI values for mitoFM Deep Red, TMRM, and mitoSOX dyes (n=4). […] Shown is the quantification of mean oxygen consumption rate (OCR), spare respiratory capacity (SRC), maximal respiration, and basal respiration.

[5] = tested on: Pmel T cells
Description: (FIG. 18C) NAD+ and nicotinamide quantification from metabolomics dataset. (FIG. 18D) SIRT1 deacetylase activity in activated Pmel T cells (means of normalized OD values). (FIGS. 18E and 18F) Pmel T cells were activated with gp100 for 3 days in the presence of vehicle, GYY4137 (0.5 mM), or GYY4137+sirt1 inhibitor EX527 (10 μM). (FIG. 18E) Nuclear and cytoplasmic protein fractions were isolated and western blot analysis was performed to determine relative expression of nuclear and cytoplasmic Foxo1 (n=3). (FIG. 18F) Expression of CD62L and CD44 analyzed by FACS (n=3). (FIG. 18G) Splenocytes from wildtype and Cbs-knockout mice+/−GYY4137 activated with anti-CD3 and anti-CD28 antibodies followed by intranuclear staining for Foxo1. (FIG. 18H) Pmel T cells activated and expanded for metabolic flux analysis. Quantification of oxygen consumption rate (OCR), spare respiratory capacity (SRC), maximal respiration, and basal respiration (n=10 experimental replicates representative of 3 separate experiments). (FIG. 18I) Pmel T cells activated and expanded to day 5 for characterization of mitochondria using FACS, quantified by MFI values for mitoFM Deep Red, TMRM, and mitoSOX dyes (n=4). (FIG. 18J) Representative confocal microscopy images of mitochondria from control or H2S-treated T cells. (FIG. 18K) Human CD19 CAR-T cells expanded for 3 days with IL2+/−0.5 mM GYY4137 and collected for metabolic flux analysis. Shown is the quantification of mean oxygen consumption rate (OCR), spare respiratory capacity (SRC), maximal respiration, and basal respiration.
Alexa Fluor 488 (anti-Giantin) and Alexa Fluor 647 (anti-TOMM20) fluorescence were imaged in a Zeiss LSM 880 NLO inverted laser scanning confocal microscope (Thornwood, NY) using a 63× 1.4 N.A. plan-apochromat oil immersion lens. Alexa Fluor 488 and Alexa Fluor 647 were excited at 488 nm and 633 nm, respectively. Emitted light was detected with an Airyscan super-resolution detector at BP 495-550 nm for Giantin label and LP 654 nm for TOMM20. Z-stack Airyscan images were processed using the Huygens Professional deconvolution and image analysis software (Scientific Volume Imaging, The Netherland). After images were deconvolved using Huygens' Deconvolution Express (Standard Profile) that determines optimal parameters, 3D surface rendering of deconvolved images with watershed augmentation using Huygens' Surface Renderer was performed.

[6] = tested on: phospho-PERK, phospho-IRE1a, ATF4; details: 12-hr incubation with 50 mM H2O2
[7] = tested on: human PBMCs; details: vehicle control or 0.5 mM GYY4137
Description: (FIG. 21A) Levels of intracellular glutathione assessed using FACS by employing ThiolTracker Violet dye in control CD19 CAR-T cells or CAR-T cells overexpressing Cbs (CbstdCD19-CAR-T) (n=3). (FIG. 21B) 12 hour Thapsigargin (700 nM) treatment was used to induce ER stress in WT T cells, Cbs-KO T cells, and Cbs-KO T cells+H2S. Levels of phosphorylated PERK were assessed by FACS (n=3). (FIG. 21C) Pmel T cells were treated with either Thapsigargin (700 nM) or Monensin (1 mM) for 12 hours, followed by staining for phosphorylated PERK (p-PERK) and GM130 to assess ER stress and Golgi stress, respectively (n=4). (FIG. 21D) Activated Pmel T cells were treated for 12 hours with either vehicle control or 1 mM Monensin (“+Golgi stress”) before being stained for giantin to assess Golgi dispersion. […] (FIG. 21E) Representative confocal microscopy images of mitochondria (Tom20) and Golgi (giantin) in human PBMCs treated with vehicle control or 0.5 mM GYY4137.
Alexa Fluor 488 (anti-Giantin) and Alexa Fluor 647 (anti-TOMM20) fluorescence were imaged in a Zeiss LSM 880 NLO inverted laser scanning confocal microscope (Thornwood, NY) using a 63× 1.4 N.A. plan-apochromat oil immersion lens. Alexa Fluor 488 and Alexa Fluor 647 were excited at 488 nm and 633 nm, respectively. Emitted light was detected with an Airyscan super-resolution detector at BP 495-550 nm for Giantin label and LP 654 nm for TOMM20. […]

[8] = tested on: Pmel CD8+ T cells; details: 3 days gp100 and IL2 +/− 0.5 mM GYY4137; remark: listed apart in the source
Description: Next, the effect of H2S treatment on the transcriptomic profile of anti-tumor T cells was determined. Pmel CD8+ T cells were activated and expanded in the presence or absence of the H2S donor prior to RNA-sequencing.
Cells were immediately pelleted by centrifugation at 4° C. and resuspended in 1 mL Trizol. RNA concentration was measured using a NanoDrop 8000. RNA quality was assessed using an Agilent 4200 TapeStation and RINe values ranged from 9.7-10. […] Dual-indexed libraries were pooled to and sequenced at VANTAGE (Vanderbilt University Medical Center) on an Illumina NovaSeq 6000 (S4 flow cell) to a depth of approximately 25 million paired-end 150 bp reads per library. Reads were aligned to the mouse mm10 reference genome using STAR (v2.7.1a). Only uniquely mapped reads were retained for further analyses. Quality control metrics were assessed by Picard tool (http://broadinstitute.github.io/picard/). Gencode annotation for mm10 (version M25) was used as reference alignment annotation and downstream quantification. Gene level expression was calculated using featureCounts (v2.0.1). Counts were calculated based on protein-coding genes from the annotation file. Counts were normalized using counts per million reads (CPM). Genes with no reads in either Control or Treated samples were removed. […]

[9] = tested on: Pmel T cells; details: H2S treated vs control
Description: Cells were treated+/−H2S for 3 days of activation followed by 3 days of expansion. For analysis of differentially reactive cysteine residues, the sample preparation and analysis were as described by Gottlieb et al. with minor modifications.72 Cells were lysed in freshly made 9 M urea, 50 mM Tris pH 8 buffer with 100 units/mL Universal Nuclease (Thermo Fisher, Pierce cat #88702). To label free thiols, lysis buffer was supplemented with either 55 mM of stable isotope labeled light (I12C2ONH4) or heavy (I13CD213CONH2) iodoacetamide (Sigma, cat #721328) for control or H2S treated cells, respectively. Equal amounts of heavy or light labeled proteins from 3 biological replicates were combined and reducible thiols were reduced with 70 mM dithiothreitol for 45 min at 25° C. […] Two μg aliquots of peptides from each fraction, obtained using ZipTips with 0.6 μL C18 resin (Millipore, Burlington, MA cat #ZTC18S096), were analyzed by LC-MS/MS on an Easy-nLC 1200 coupled to a Orbitrap Fusion Lumos MS (Thermo Scientific, Waltham, MA). […] Ions were detected in the orbitrap. […]
To control for changes in protein expression, an aliquot of each uncombined, labeled protein sample was analyzed using a label free proteomic approach (MaxQuant LFQ). Proteins were digested as above, and peptides were analyzed using an U3000 nano LC system coupled to an Orbitrap Elite MS (Thermo Scientific). […]

[10] = tested on: Golgi^lo T cells; details: GYY4137 (0.5 mM) 3 days, stimulated with gp100
Description: Cells were subsequently stimulated with gp100 antigen and analyzed for production of cytokines by FACS (n=4). (FIG. 25B) Quantification of FACS MFI values for MitoTracker Deep Red FM stain in Golgi^hi vs. Golgi^lo cells (n=4 independent samples). (FIG. 25C) Real-time flux in OCR measured using Seahorse metabolic flux analysis. Shown is the quantification of mean oxygen consumption rate (OCR) throughout the assay, spare respiratory capacity (SRC), maximal respiration, and basal respiration (n=experimental replicates representative of 3 separate experiments). (FIG. 25D) FACS sorted Golgi^hi vs. Golgi^lo melanoma epitope gp100 TCR reactive CD8+ T cells from Pmel mouse were analyzed using transmission electron microscopy (TEM) to evaluate mitochondria and Golgi morphology. (FIG. 25E-25H) Global metabolomics analysis was performed on Golgi^hi vs. Golgi^lo Pmel T cells and analyzed for PCA (FIG. 25E) and pathway enrichment (FIG. 25F). […] (FIGS. 25M and 25N) Human CD19 CAR-T cells were expanded and sorted into Golgi^hi and Golgi^lo based on BODIPY TR Ceramide dye fluorescence and were co-cultured at a 1:1 ratio with Raji cells. (FIG. 25M) The percentage of viable Raji cells remaining after 24 hours was analyzed using FACS. (FIG. 25N) Expression of Perforin and Granzyme B was assessed using FACS in sorted CD19 CAR-T cells following co-culture with Raji cells. […]

[11] = tested on: Cbs-KO T cells; test: Cbs-KO T cells activated with anti-CD3/anti-CD28 with or without H2S
[12] = tested on: Pmel CD8+ T cells; test: H2O2-induced oxidative stress and antioxidant capacity in Pmel T cells
Description: (FIG. 20A) Cells treated for 12-hours with H2O2 (50 mM). FACS analysis quantifying 7-AAD+AnnexinV+ and 7−AAD−AnnexinV− populations (n=3). FIG. 20B, mRNA levels of GCLM and GCLC. (FIG. 20C) Measurements of surface thiols by AlexaFluor-488 C5 Maleimide (n=3) and intracellular glutathione by ThiolTracker Violet (n=4). […] (FIG. 20E) Fold increase in MFI for phosphorylated-PERK, phosphorylated-IRE1a, and ATF4 after 12-hr. incubation with 50 mM H2O2 (n=3). FIG. 20F, FACS quantification of cells expressing high phosphorylated-PERK levels after exhaustion assay (n=2). (FIG. 20G) Percentage of cells expressing high phosphorylated-PERK in Pmel cells overexpressing Cbs compared to Pmel cells transduced with control lentivirus (n=3). (FIG. 20H) Fold change in GM130 MFI in Pmel cells using exhaustion assay (n=3). (FIG. 20I) Cell viability and mitochondrial ROS following monensin treatment (1 mM). […] (FIG. 20K) GM130 MFI values in Pmel T cells overexpressing Cbs compared to control cells after transfer into tumor-bearing mice and TIL isolation after 7 days (n=4). (FIG. 20L) Pmel T cells cultured with B16-F10 supernatant and gp100, followed by FACS sorting for PD1+TIM3+ and PD1−TIM3− cells. Sorted cells stained with anti-Giantin antibody and analyzed for Golgi area via ImageStream. (FIG. 20M) FACS analysis of GM130 expression in PD1+TIM3+ and PD1−TIM3− populations. (FIG. 20N) Pmel cells treated with 1 mM monensin and analyzed for intracellular ROS (DCFDA). (FIG. 20O) FACS analysis of GM130 expression in Pmel cells treated with 50 mM H2O2 (6-hours). Data represent mean±SEM. Analyzed by two-sided Student's t-test or one-way ANOVA. ns, p-value >0.05; p-value *≤0.05; **≤0.01; ***≤0.001; ****≤0.0001.

SMILES: C1COCCN1.COc1ccc(P(=S)(S)N2CCOCC2)cc1 (stereo not drawn) [GYY4137]
- Granzyme B and CD107 expression [1]: increased levels of cytolytic molecule Granzyme B and CD107 expression
- secretion of effector cytokines TNF-α and IFN-γ [1]: enhanced secretion of effector cytokines TNF-α, and IFN-γ
- Tet activity [2]: decrease of Tet activity
- levels of NAD+ [3]: increased levels of NAD+
- levels of nicotinamide [3]: decreased levels of nicotinamide
- metabolite profile [3]: distinct profile of metabolites
- Sirt1 activity [4]: increased Sirt1 activity
- mitochondrial organization and morphology (confocal) ([5]; control vs H2S-treated): more compact and continuous mitochondria
- mitochondrial mass (mitoFM staining) ([5]; expanded to day 5): increased overall mitochondrial mass
- mitochondrial membrane potential (TMRM staining) ([5]; expanded to day 5): decreased mitochondrial membrane potential
- mitochondrial reactive oxygen species (mitoSOX staining) ([5]; expanded to day 5): decreased mitochondrial reactive oxygen species
- oxidative stress-induced increase of phospho-PERK, phospho-IRE1a, ATF4 [6]: this increase was mitigated
- Golgi organization (giantin, confocal) [7]: more compact Golgi organization
- significantly upregulated pathways [8]: pathways related to immune receptor activity, T cell signaling, and cytokine activity
- transcriptomic profile (PCA) [8]: distinct transcriptomic profile
- free thiols / abundance of ER proteins Prdx4, Ero1, MANF1, Rp17a [9]: enhanced abundance or an increase in the extent of free thiols
- free thiols at cysteine 54 in Prdx4 [9]: increase in free thiols at cysteine 54 in Prdx4
- effector functions (cytokines by FACS) of Golgi^lo T cells [10]: partial restoration of their effector functions
- expression of Foxo1 (intranuclear staining) ([11]; Cbs-KO T cells +/− GYY4137): restored
- ER stress (pPERK) ([11]; Cbs-KO T cells, 12 hour Thapsigargin (700 nM)): reduced
- Tcm fraction ([11]; H2S added to Cbs-KO T cells): restoration of the Tcm fraction
- apoptotic cell death (7-AAD, AnnexinV) ([12]; 12-hours H2O2 (50 mM), +/− 0.5 mM GYY4137): significant decrease in apoptotic cell death
- expression of GCLC and GCLM (mRNA) ([12]; +/− 0.5 mM GYY4137): increased expression
- intracellular glutathione (iGSH) ([12]; ThiolTracker Violet): increase
